Where a SMILES comes first, the peptide text is derived from it. The star is where a group is joined. PNA(A) = NCCN(CC(=O)*)C(=O)Cn1cnc2c(N)ncnc21
Legend:
PKC-βII = PKC-βII (Homo sapiens, UniProt P05771); test: Competition of PRE with PKC-βII antibody binding, Protocol B, IMR-32; design: PKC-βII by PRE 3 and PRE 4 in IMR-32 Neuroblastoma; endogenous in cells; host or cells: IMR-32 human neuroblastoma cells; settings: Protocol B (control 98.6)
Procedure: The ability of the peptides PRE 2 and PRE 3 (see Table 4) to interfere with the binding of a PKC-α-specific polyclonal antibody (Santa Cruz Biotechnology, Inc.) to PKC-α was determined using a modified version of the protocol outlined above in which the test peptide was added directly to the cell extract prior to electrophoresis at a concentration of either 5× or 15× the concentration of the protein applied to each well of the gel for the Western blots (20 μg).
(§1) Peptides PRE 3 and PRE 4 (see Table 4) were tested for their ability to interfere with the binding of isoform-specific polyclonal antibodies (Santa Cruz Biotechnology, Inc.) to PKC-α, PKC-βI or PKC-βII using the general protocol described in Example 3.

PKC-α [1] = biological target: T1, PKC-α (Homo sapiens, UniProt P17252); test: Competition of PRE with PKC-α antibody binding, Protocol B (peptide added to cell extract before electrophoresis), IMR-32; design: endogenous PKC-α in (A) untreated human neuroblastoma (IMR-32) cells; endogenous in cells; host or cells: IMR-32 human neuroblastoma cells
Procedure: as §1

PKC-α [2] = biological target: T1, PKC-α; test: Subcellular localisation of PKC-α in IMR-32 cells; type: cell-based; design: endogenous PKC-α in (A) untreated human neuroblastoma (IMR-32) cells; endogenous in cells; host or cells: IMR-32 human neuroblastoma cells; settings: 10 mg/ml, pinocytic endocytosis
Procedure: Peptides PRE 3 or PRE 4 (10 mg/ml) were introduced into human neuroblastoma cells (IMR-32) by pinocytic endocytosis. The cells were fixed and stained with rabbit PKC-α primary antibody and anti-rabbit Alexa-488 or Alexa-800 secondary antibody.

PKC beta 1 = PKC beta 1 (Homo sapiens, UniProt P05771); test: Kinase-Glo Luminescent Kinase Assay; type: biochemical; design: purchased; settings: read-out: % Inhibition PKC-βI
PKC beta 1, sequence (P05771 whole entry, canonical isoform): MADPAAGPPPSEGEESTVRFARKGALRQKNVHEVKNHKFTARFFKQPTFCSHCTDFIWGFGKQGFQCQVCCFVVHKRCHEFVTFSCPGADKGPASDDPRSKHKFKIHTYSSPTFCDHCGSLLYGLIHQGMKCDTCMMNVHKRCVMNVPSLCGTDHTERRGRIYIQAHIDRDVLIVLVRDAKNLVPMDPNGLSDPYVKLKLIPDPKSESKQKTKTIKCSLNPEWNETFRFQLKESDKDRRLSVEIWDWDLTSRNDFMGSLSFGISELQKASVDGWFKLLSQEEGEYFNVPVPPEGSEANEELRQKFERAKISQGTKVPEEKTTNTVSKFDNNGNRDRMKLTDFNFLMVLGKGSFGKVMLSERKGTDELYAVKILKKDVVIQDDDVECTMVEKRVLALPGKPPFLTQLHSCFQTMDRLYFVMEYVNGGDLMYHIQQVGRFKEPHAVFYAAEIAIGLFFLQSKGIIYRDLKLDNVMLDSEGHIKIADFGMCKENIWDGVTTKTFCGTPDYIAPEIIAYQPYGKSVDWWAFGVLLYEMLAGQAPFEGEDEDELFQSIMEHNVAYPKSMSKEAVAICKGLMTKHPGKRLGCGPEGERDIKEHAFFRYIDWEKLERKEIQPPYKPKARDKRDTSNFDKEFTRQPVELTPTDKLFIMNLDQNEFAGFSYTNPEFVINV
Procedure: Compounds TIM 10, 11, 13, 14, 15, and 18-22 (see Table 28) were tested for their ability to inhibit the activity of PKC-alpha, beta 1, delta and epsilon isoforms the Kinase-Glo™ Luminescent Kinase Assay (Promega, Cat # V6712/3/4) following the manufacturer's instructions.

PKC-β = biological target: T2, PKC-β (Homo sapiens, UniProt P05771); test: Competition of PRE with PKC-β antibody binding, Protocol A, IMR-32 lysate
T2 construct: PRE 2 and PRE 3 in IMR-32 Neuroblastoma Cells: Protocol A; endogenous in cells; host or cells: IMR-32 human neuroblastoma cells
T2 sequence (P05771 whole entry): as the sequence (P05771 whole entry, canonical isoform) above
Procedure: (§2) Cell lysates from either IMR-32 (human neuroblastoma) cells or C6Cx43 cells (rat glioma transfected cells overexpressing connexin 43) were obtained using standard protocols and the proteins of the lysate were separated by SDS PAGE electrophoresis and electrotransferred onto a nitrocellulose membrane. The membrane was incubated for 30 minutes in blocking buffer (TBST) containing the test peptide at either 5× or 20× the concentrations of the primary antibody. A primary polyclonal antibody specific for PKC-α (Santa Cruz Biotechnology, Inc., CA) was then added (15 μg/ml) and the membrane incubated for a further 45 minutes. Finally, the primary antibody was detected with a secondary antibody conjugated to alkaline phosphatase using standard procedures. The intensity of the band corresponding to PKC-α was assessed by scanning and densitometry using the Gel-Pro software (Media Cybernetics) to obtain relative band intensities (average of 3 replicas). Control assays were conducted as described above except that blocking buffer without peptide was used.
Peptides PRE 1, PRE 2 and PRE 3 (see Table 4) were tested for their ability to interfere with the binding of a PKC-β-specific polyclonal antibody (Santa Cruz Biotechnology, Inc.) to PKC-β using the general protocol described in Example 1. […] It is worth noting in this regard that PKC-α and PKC-β belong to the same sub-group of PKCs (cPKCs).

PKC-α [3] = biological target: T1, PKC-α; test: Competition of PRE with PKC-α antibody binding on Western blot, Protocol A, IMR-32 lysate; design: endogenous PKC-α in (A) untreated human neuroblastoma (IMR-32) cells; endogenous in cells; host or cells: IMR-32 human neuroblastoma cells; settings: IMR-32 cells
Procedure: The ability of the PRE 1, 2 and 3 (see Table 3 above) to interfere with the binding of a PKC-α-specific polyclonal antibody to PKC-α was determined using the following protocol.
as §2
The results are expressed as relative band intensity and as a percentage of the intensity of the corresponding band in the control assay (“Relative intensity (%)”). “% inhibition” relates to the percentage of the PKC-α band that is inaccessible to the antibody.

[4] = 100 μg, Example 5 (control 302.5)
[5] = 200 μg, Example 5 (control 302.5)
[6] = 300 μg, Example 5 (control 302.5)

PKC-βII, sequence (P05771 1-673 isoform P05771-2): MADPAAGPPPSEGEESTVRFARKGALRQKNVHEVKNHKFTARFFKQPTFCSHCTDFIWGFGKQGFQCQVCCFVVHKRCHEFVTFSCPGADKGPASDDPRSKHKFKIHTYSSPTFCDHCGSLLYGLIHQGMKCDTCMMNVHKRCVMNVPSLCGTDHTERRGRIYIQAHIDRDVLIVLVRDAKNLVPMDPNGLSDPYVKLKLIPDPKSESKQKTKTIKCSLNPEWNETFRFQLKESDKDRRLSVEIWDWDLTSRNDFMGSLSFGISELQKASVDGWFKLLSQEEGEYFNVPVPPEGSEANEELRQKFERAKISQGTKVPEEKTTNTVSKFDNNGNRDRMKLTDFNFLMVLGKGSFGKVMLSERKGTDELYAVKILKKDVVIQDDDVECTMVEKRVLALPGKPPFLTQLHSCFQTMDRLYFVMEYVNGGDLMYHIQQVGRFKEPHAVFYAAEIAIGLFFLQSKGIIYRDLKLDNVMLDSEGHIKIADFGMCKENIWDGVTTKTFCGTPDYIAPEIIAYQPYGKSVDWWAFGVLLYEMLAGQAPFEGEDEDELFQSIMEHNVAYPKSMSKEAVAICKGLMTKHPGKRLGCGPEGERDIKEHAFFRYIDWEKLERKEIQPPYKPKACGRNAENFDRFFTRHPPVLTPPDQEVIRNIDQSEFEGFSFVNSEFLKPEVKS

Row | Molecule | Band Intensity (PKC-βII; 100 μg) | Band Intensity (PKC-βII; 200 μg) | Band Intensity (PKC-βII; 300 μg) | Band Intensity (PKC-α [1]; [4]) | Band Intensity (PKC-α [1]; [5]) | Band Intensity (PKC-α [1]; [6]) | effect on subcellular localisation of PKC-α (PKC-α [2]) | Band Intensity (PKC-β; 75 μg) | Inhibition (%) (PKC-β; 75 μg) | Band Intensity (PKC-β; 300 μg) | Inhibition (%) (PKC-β; 300 μg) | Band Intensity (PKC-α [3]; 75 μg) | Band Intensity (PKC-α [3]; 300 μg) | other results
1 | CC[C@H](C)[C@H](NC(=O)[C@H](CO)NC(=O)[C@@H](NC(=O)CNC(=O)[C@@H](NC(=O)[C@H](CC(C)C)NC(=O)[C@H](CC(N)=O)NC(=O)[C@H](CCC(N)=O)NC(=O)[C@H](C)NC(=O)[C@H](CC(=O)O)NC(=O)[C@H](CCCCN)NC(C)=O)[C@@H](C)CC)[C@@H](C)CC)C(N)=O [PRE 4, Ac-KDAQNLIGISI-NH2] (Ac-KDAQNLIGISI-NH2) | 69.58 | 0.0 | 0.0 | 32.2 | 1.5 | 0.0 | prevented translocation of PKC-α to the membrane | – | – | – | – | – | – | –
2 | CC[C@H](C)[C@H](NC(=O)[C@H](CO)NC(=O)[C@@H](NC(=O)CNC(=O)[C@@H](NC(=O)[C@H](CC(C)C)NC(=O)[C@H](CC(N)=O)NC(=O)[C@H](CCC(N)=O)NC(=O)[C@H](C)NC(=O)[C@H](CC(=O)O)NC(=O)[C@H](CCCCN)NC(=O)CNC(=O)CNC(=O)CNC(=O)CNC(=O)CNC(=O)CNC(=O)CNC(=O)[C@H](CC(C)C)NC(=O)[C@H](CCCNC(=N)N)NC(=O)[C@H](Cc1ccccc1)NC(=O)[C@H](CCCCNC(=O)CN(CCN)C(=O)Cn1cnc2c(N)ncnc21)NC(=O)[C@H](CCCNC(=N)N)NC(=O)[C@H](CCCNC(=N)N)NC(=O)[C@H](Cc1ccccc1)NC(C)=O)[C@@H](C)CC)[C@@H](C)CC)C(N)=O [TIM 10] (Ac-FRRK(PNA(A))FRLGGGGGGGKDAQNLIGISI-NH2) | – | – | – | – | – | – | – | – | – | – | – | – | – | inhibition at 15 µM (PKC beta 1; 15.0 μM): 74%; inhibition at 30 µM (PKC beta 1; 30.0 μM): 100%
3 | CC[C@H](C)[C@H](NC(=O)[C@H](CO)NC(=O)[C@@H](NC(=O)CNC(=O)[C@@H](NC(=O)[C@H](CC(C)C)NC(=O)[C@H](CC(N)=O)NC(=O)[C@H](CCC(N)=O)NC(=O)[C@H](C)NC(=O)[C@H](CC(=O)O)NC(=O)CNC(=O)CNC(=O)[C@H](CCCCN)NC(=O)[C@@H](NC(=O)[C@H](CCC(=O)O)NC(=O)[C@H](CCC(N)=O)NC(=O)[C@@H](NC(=O)CNC(=O)[C@H](CCCCN)NC(=O)[C@H](C)NC(C)=O)[C@@H](C)CC)C(C)C)[C@@H](C)CC)[C@@H](C)CC)C(N)=O [PRE 3] (Ac-AKGIQEVKGGDAQNLIGISI-NH2) | 0.0 | 0.0 | 0.0 | 0.0 | 0.0 | 0.0 | does not alter the subcellular localisation of PKC-α | 1.900 | 0.0% | 1.900 | 0.0% | 0.889 | 0.922 | remaining activity at 0.075 mg (PKC-β; 75 μg, read-out: Relative Intensity (%)): 102%; remaining activity at 0.3 mg (PKC-β; 300 μg, read-out: Relative Intensity (%)): 102%; Band Intensity (PKC-β; 600 μg): 1.847; Inhibition (%) (PKC-β; 600 μg): 0.0%; remaining activity at 0.6 mg (PKC-β; 600 μg, read-out: Relative Intensity (%)): 99.6%; Band Intensity (PKC-α [1]; 100 μg, Example 3 (control 0.759)): 0.0; Band Intensity (PKC-α [1]; 200 μg, Example 3 (control 0.759)): 0.0; Band Intensity (PKC-α [1]; 300 μg, Example 3 (control 0.759)): 0.0
4 | RRKKGGKDFVVKR [PRE 1] | – | – | – | – | – | – | – | 0.825 | 28.9% | 0.528 | 54.5% | 1.040 | 0.771 | Relative Intensity (%) (PKC-β; 75 μg): 71.1%; Relative Intensity (%) (PKC-β; 300 μg): 45.5%; Inhibition (%) (PKC-α [3]; 75 μg): 50.2%; Relative Intensity (%) (PKC-α [3]; 75 μg): 49.8%; Inhibition (%) (PKC-α [3]; 300 μg): 63.1%; Relative Intensity (%) (PKC-α [3]; 300 μg): 36.9%
